We go through two compounds from paper PMC8845285, “Serotoninergic receptor ligands improve Tamoxifen effectiveness on breast cancer cells” (BMC Cancer, 2022).

For one test, the system named is MCF7 cells. The experiment in a line: MCF7 responsiveness to Tamoxifen in presence of SER, sulforhodamine B assay. It counts as cell-based, human. The following applies: Tamoxifen 5 μM, E2 100 nM, 72 h, estrogen-starved MCF7. The protocol:
MCF7 (ER^+, PR^+, HER2^−), SKBR3 (ER^−, PR^+, HER2^+) and MDA-MB231 (ER^−, PR^−, HER2^−) human BC cells and MCF10A non-cancer breast epithelial cells were available in our laboratory. MCF7, SKBR3 and MDA-MB231 cells were cultured in DMEM, supplemented with 10% FBS, 2 mM glutamine, 100 units/ml penicillin and 100 units/ml streptomycin. MCF10A cells were cultured in MEBM, supplemented with 0.4% BPE, 0.1% hEGF, 0.1%, Insulin, 0.1% Hydrocortisone and 0.1% GA-1000. […] Treatment with SER were carried out in culture conditions. Treatment with Tamoxifen and/or SER were carried out upon 48 h estrogen starvation in phenol-red free medium supplemented with 10% Charcoal Stripped (C/S) FBS, 2 mM glutamine, 100 units/ml penicillin and 100 units/ml streptomycin.
Cells were fixed with 50% trichloroacetic acid for at least 2 h at 4 °C, washed with distilled and de-ionized water, air-dryed and stained 30 min with 0.4% sulforhodamine B in 1% acetic acid. Unbound dye was removed and 10 mM tris-HCl solution (pH 7.5) was added to dissolve the protein-bound dye. Cell survival was assessed by optical density determination at 510 nm using a microplate reader.
After 72 h, cell cycle was assessed by Propidium Iodide staining (see Methods). […] As positive control, the cells were treated with E2 and SER alone (without Tamoxifen, dotted line). After 72 h, cell viability was assessed by sulforhodamine B assay (see Methods). […] After 72 h, mRNA levels of CTGF were determined by qPCR (see Methods and Table 1). Data were normalized on Ribosomal Protein S23 (Rps23) gene as internal standard and were reported as CTGF mRNA levels in MCF7 treated with SER relative to those in untreated cells (dotted line). a-c Data represent the mean ± SD of at least three independent triplicate experiments. * denotes statistically significant values compared with (a) percentage of untreated cells in G0/G1, S and G2/M cell cycle phase (*pval<0.05,**pval<0.01), (b) positive control (*adjp<0.05,**adjp <0.01,***adjp<0.001), (c) untreated cells (pval<0.05); # denotes statistically significant values compared with cells treated with Tamoxifen in absence of SER (#pval<0.05)
Fig. 7 Effect of low doses of SER79 and SER68 on MCF7 and MCF10A cells. a Estrogen-starved MCF7 cells (48 h) were treated with Tamoxifen (5 μM) in presence of E2 (100nM) and SER79 (5 μM) or SER68 (20 μM, 5 μM). As positive control, the cells were treated with E2 and SER alone (without Tamoxifen, dotted line). After 72 h, cell viability was assessed by sulforhodamine B assay (see Methods). […] After 72 h, mRNA levels of CTGF were determined by qPCR (see Methods and Table 1). Data were normalized on Ribosomal Protein S23 (Rps23) gene as internal standard. Bars represent CTGF mRNA levels in MCF7 treated with SER relative to those in untreated cells (dotted line). c MCF10A non-cancer breast epithelial cells were treated with SER79 (5 μM) or SER68 (20 μM). After 72 h, cell viability was assessed by sulforhodamine B assay (see Methods).

The subject of the next test is CTGF. The test is described as follows: CTGF mRNA levels in Tamoxifen-cultured MCF7 cells, qPCR. The class given is cell-based, human. The following applies: Tamoxifen-cultured MCF7, doses able to restore Tamoxifen responsiveness, 72 h. The protocol: Total RNA was isolated from cells, quantified (NanoDrop spectrophotometer, Life Technologies, Carlsbad, CA, USA) and reverse transcribed according to the manufacturer’s instructions. Semiquantitative PCR and qPCR assays were performed according to manufacturer’s instructions for Bio-Rad T100 thermal cycler and CFX Connect Real Time system (Biorad, Hercules, CA, USA), respectively. Relative gene expression quantification was measured by 2^−ΔΔCt method normalizing for the reference sample using Rps23 (Ribosomal Protein S23) as housekeeping gene.
Fig. 8 Effect of SER79 and SER68 on Tamoxifen-cultured MCF7 cells. MCF7 cells were cultured in presence of Tamoxifen (1 μM) for 10 days. Estrogen-starved MCF7 and Tamoxifen-cultured MCF7 cells (48 h) were (a-c) treated with SER79 (20 μM, 5 μM) or SER68 (40 μ, 20 μM), (b) treated with Tamoxifen (5 μM) in presence of SER79 (20 μM, 5 μM) or SER68 (40 μM, 20 μM). All treatments were carried out in presence of E2 (100 nM) for 72 h. As positive control, the cells were treated with (a-c) E2 alone or (b) E2 in absence or in presence of SER (as indicated, dotted line). a,b Cell viability was assessed by sulforhodamine B assay (see Methods). The results were reported as percentage of viable cells compared to positive control, considered as maximum viability (100%). c mRNA levels of CTGF were determined by qPCR (see Methods and Table 1). […]

As for `N#CN=C(NCCCN1CCN(C(c2ccc(F)cc2)c2ccc(F)cc2)CC1)c1ccccn1` [SER79], the “further decrease of cell viability compared with Tamoxifen alone” value with MCF7 cells (SER 5 μM) and in the test on MCF7 cells (SER at IC50 dose) was “≈ 15%” throughout. In the test on CTGF, the “CTGF levels after SER compared with those in Tamoxifen-responsive MCF7 cells” value is “similar”.
Turning to `O=C1C2C3C=CC(C3)C2C(=O)N1OCCN1CCN(c2ccc(Cl)c(Cl)c2)CC1` (stereo not shown) [SER68], the “further decrease of cell viability compared with Tamoxifen alone” value in the test with MCF7 cells (SER 5 μM) is “No further effect”; in the test on MCF7 cells (SER 20 μM), “≈ 20%”; in the test on MCF7 cells (SER at IC50 dose) it was “≈ 30%”. The “CTGF levels after SER compared with those in Tamoxifen-responsive MCF7 cells” value in the test with CTGF was “significantly lower”.
